Laboratory results published in ChEMBL document CHEMBL4431311, “Endothelin-Receptor Antagonists beyond Pulmonary Arterial Hypertension: Cancer and Fibrosis” (J Med Chem, 2016).

Tests used:
Endothelin-1 receptor [1] = molecular target: T1, Endothelin-1 receptor (Homo sapiens, UniProt P25101); assay: Displacement of [125I]ET-1 from human ET-A receptor expressed in CHO cell membrane incubated for 2 hrs; type: cell membranes
T1 sequence (P25101 whole entry): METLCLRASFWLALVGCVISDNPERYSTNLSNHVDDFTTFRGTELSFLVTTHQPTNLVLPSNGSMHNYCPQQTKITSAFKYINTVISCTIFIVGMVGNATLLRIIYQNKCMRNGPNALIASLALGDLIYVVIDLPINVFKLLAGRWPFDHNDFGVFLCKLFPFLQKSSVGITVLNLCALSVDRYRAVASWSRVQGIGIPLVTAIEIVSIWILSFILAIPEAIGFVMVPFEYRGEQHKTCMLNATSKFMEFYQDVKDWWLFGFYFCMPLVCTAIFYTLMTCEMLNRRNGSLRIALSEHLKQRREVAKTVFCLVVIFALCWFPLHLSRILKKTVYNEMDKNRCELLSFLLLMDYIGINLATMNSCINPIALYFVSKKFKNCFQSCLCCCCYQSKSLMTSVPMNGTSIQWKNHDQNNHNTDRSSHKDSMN

[2] = molecular target: T2, Endothelin-1 receptor (Homo sapiens) (UniProt P25101); assay: Binding affinity to ET-A receptor (unknown origin) assessed as dissociation half life
T2 sequence (whole entry): T1 sequence (P25101 whole entry)

Endothelin-1 receptor [3] = molecular target: T1, Endothelin-1 receptor; assay: Displacement of [125I]ET-1 from ET-A receptor in human SK-N-MC cells incubated for 4 hrs by gamma counting method; type: cell-based
[4] = molecular target: T3, Endothelin receptor type B (Homo sapiens, UniProt P24530); assay: Displacement of [125I]ET-1 from ET-B receptor in human Girardi heart cells incubated for 4 hrs by gamma counting method; type: cell-based
T3 sequence (P24530 whole entry): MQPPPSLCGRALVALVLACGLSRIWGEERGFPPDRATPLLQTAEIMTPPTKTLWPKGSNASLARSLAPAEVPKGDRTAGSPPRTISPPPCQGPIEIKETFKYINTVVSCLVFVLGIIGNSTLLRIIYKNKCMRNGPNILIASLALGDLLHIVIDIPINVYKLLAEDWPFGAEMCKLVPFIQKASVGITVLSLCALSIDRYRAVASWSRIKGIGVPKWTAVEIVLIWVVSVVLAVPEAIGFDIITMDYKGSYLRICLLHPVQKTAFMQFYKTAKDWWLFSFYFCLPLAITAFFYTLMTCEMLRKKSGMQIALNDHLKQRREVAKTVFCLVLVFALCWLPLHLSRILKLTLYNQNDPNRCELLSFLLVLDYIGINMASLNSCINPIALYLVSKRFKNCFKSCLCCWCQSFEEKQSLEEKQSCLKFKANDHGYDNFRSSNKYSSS

## Cc1cc(C)cc(C(=O)N(C)[C@H](Cc2ccc(-c3ccccc3)cc2)C(=O)N[C@@H](Cc2c[nH]c3ccccc23)C(=O)O)c1
Endothelin-1 receptor [1]
  IC50: 94 nM

## COc1ccccc1Oc1c(NS(=O)(=O)c2ccc(C(C)(C)C)cc2)nc(-c2ncccn2)nc1OCCO
[2]
  T1/2: 1 min

## CCCC[C@H](NC(=O)[C@@H](Cc1cn(C(=O)OC)c2ccccc12)NC(=O)[C@@H](CC(C)(C)C)NC(=O)N1[C@H](C)CCC[C@@H]1C)C(=O)O
Endothelin-1 receptor [3]
  IC50: 1300 nM
[4]
  IC50: 1.2 nM
